Assay results: ChEMBL document CHEMBL5252626, “Design and synthesis of novel GluN2A NMDAR positive allosteric modulators via scaffold hopping strategy as anti-stroke therapeutic agents” (Bioorg Med Chem, 2023)
In brackets after ≈: the same amount, converted by molar mass. Activity calls are given as the source filed them. The calls are words filed in the database; no cut-off is given here.

Legend:
[1] = tested on: PC-12; experiment: Neuroprotective activity against glutamate-induced neurotoxicity in rat PC-12 cells assessed as survival rate at 1 uM by WST-8 assay; format: functional
[2] = tested on: PC-12; experiment: Neuroprotective activity against glutamate-induced neurotoxicity in rat PC-12 cells assessed as survival rate at 0.1 uM by WST-8 assay (reference value: 40.8+/-2.0%); format: functional
[3] = tested on: PC-12; experiment: Neuroprotective activity against glutamate-induced neurotoxicity in rat PC-12 cells assessed as survival rate at 10 uM by WST-8 assay; format: functional
[4] = tested on: PC-12; experiment: Cytotoxicity in rat PC-12 cells assessed as reduction in cell viability at 10 uM incubated for 24 hrs by CCK-8 method; format: toxicity, cell-based; conditions: pc-12, 24 h
[5] = Solubility of the compound in water by UV spectophotometry analysis; format: physicochemical
[6] = tested on: Mus musculus; experiment: Neuroprotective activity in middle cerebral artery occlusion-induced C57BL/6 mouse model assessed as reduction in infarct volume at 2 mg/kg, sc incubated with compound for 2 hrs after reperfusion by TTC staining based assay relative to control; format: functional; design: scale not given: the % may be the effect or the level left
[7] = biological target: T1, Glutamate NMDA receptor; GRIN1/GRIN2A (Homo sapiens) (UniProt Q05586+Q12879); experiment: Positive allosteric modulation of GluN1/GluN2A receptor (unknown origin) stably expressed in HEK293 cells assessed as glutamate/glycine induced increase in intracellular calcium level at 10 uM incubated for 30 mins followed by addition of glutamate/glycine by Ca2+ influx assay; format: cell-based; conditions: filed as positive allosteric modulator
[8] = biological target: Glutamate NMDA receptor; GRIN1/GRIN2B (Homo sapiens) (UniProt Q05586+Q13224); experiment: Positive allosteric modulation of GluN1/GluN2B receptor (unknown origin) stably expressed in HEK293 cells assessed as glutamate/glycine induced increase in intracellular calcium level at 10 uM incubated for 30 mins followed by addition of glutamate/glycine by Ca2+ influx assay; format: cell-based
[9] = tested on: Mus musculus; experiment: Neuroprotective activity in middle cerebral artery occlusion-induced C57BL/6 mouse model assessed as reduction in infarct volume at 2 mg/kg, sc incubated with compound for 2 hrs after reperfusion by TTC staining based assay; format: functional
[10] = biological target: T1, Glutamate NMDA receptor; GRIN1/GRIN2A (Homo sapiens); experiment: Positive allosteric modulation of GluN1/GluN2A receptor (unknown origin) stably expressed in HEK293 cells assessed as ratio of Fmax/F0 fluorescence curve value; format: cell-based; conditions: filed as positive allosteric modulator
[11] = filed as positive allosteric modulator

SMILES	Activity [1] [%]	Activity [2] [%]	Activity [3] [%]	Activity [4] [%]	solubility [5] [µM]	Activity [6] [%]	Activity [7]	Activity [8, 11]	Activity [9] [mm]	Ratio [10]	Activity [8]
COc1ccc(NC(=O)C2=Cc3ccccc3OC2)cc1	35	43.3	61.5	100.3	–	–	–	–	–	–	–
COc1ccc(NC(=O)c2c[nH]c3ccccc3c2=O)c(C)c1	34.2	33.6	44	62	–	–	–	–	–	–	–
COc1ccc(NC(=O)c2c[nH]c3c(Cl)cccc3c2=O)cc1	35.5	33.6	54.3	79.9	–	–	–	–	–	–	–
COc1cccc2c1OCC(C(=O)Nc1cc(Cl)ccc1O)=C2	58.6	61.5	71.3	92.6	–	–	–	–	–	–	–
COc1cccc(NC(=O)C2=Cc3ccccc3OC2)c1	35.3	34.2	62.6	79.1	–	–	–	–	–	–	–
COc1ccccc1NC(=O)C1=Cc2ccccc2OC1	36.9	41.2	76.9	74.1	–	–	–	–	–	–	–
COc1cccc2c1C=C(C(=O)Nc1ccc(NC(C)=O)cc1)CO2	76.9	59.2	56.9	85.5	–	–	–	–	–	–	–
COc1ccccc1NC(=O)c1c[nH]c2c(Cl)cccc2c1=O	64.9	64.3	52.8	84.4	13.7 (≈ 4.5 µg/mL)	49	Active	Active	–	–	–
CC(=O)Nc1ccc(NC(=O)c2c[nH]c3c(Cl)cccc3c2=O)cc1	62	61.5	62.7	91.9	34.7 (≈ 12.3 µg/mL)	–	Active	Active	96	–	–
O=C(Nc1cc(Cl)ccc1O)C1=Cc2ccccc2OC1	57.2	67.6	52.5	92.2	–	–	–	–	–	–	–
COc1cccc2c1C=C(C(=O)Nc1cc(Cl)ccc1O)CO2	58.5	51.2	64.8	95	–	–	–	–	–	–	–
CNC(=O)c1ccccc1NC(=O)c1c[nH]c2c(Cl)cccc2c1=O	47.3	47.6	42.6	93.8	–	–	–	–	–	–	–
COc1ccccc1CNC(=O)c1c[nH]c2ccccc2c1=O	44.4	50.3	17.7	28.8	–	–	–	–	–	–	–
CC(=O)Nc1ccc(NC(=O)C2=Cc3ccccc3OC2)cc1	54.1	62.1	57.3	84.7	364 (≈ 112 µg/mL)	–	–	–	93	–	–
COc1cccc2c1OCC(C(=O)Nc1ccc(NC(C)=O)cc1)=C2	54	53.5	41.2	67.3	–	–	–	–	–	–	–
COc1ccc(NC(=O)c2c[nH]c3ccccc3c2=O)cc1	69.8	71	53.1	81.1	–	–	–	–	–	–	–
COc1ccccc1CNC(=O)c1c[nH]c2c(Cl)cccc2c1=O	41.2	44.4	23.2	66.1	–	–	–	–	–	–	–
O=C(NCc1ccc(Br)cc1)c1cc2c(Br)cccc2oc1=O	40.76	40.87	39.9	94.97	–	–	–	–	–	–	–
Cc1ccc(O)cc1NC(=O)c1c[nH]c2ccccc2c1=O	52	59.5	50.2	63.6	29.6 (≈ 8.71 µg/mL)	45	Active	–	–	154	inactive
CC(=O)c1ccc(NC(=O)c2c[nH]c3ccccc3c2=O)cc1	30.8	30.8	40.2	74.6	–	–	–	–	–	–	–

SMILES	Activity [1] [%]	Activity [2] [%]	Activity [3] [%]	Activity [4] [%]	solubility [5] [µM]	Activity [6] [%]	Activity [7]	Activity [8, 11]	Activity [9] [mm]	Ratio [10]	Activity [8]
CC(=O)Nc1ccc(NC(=O)c2c[nH]c3ccccc3c2=O)cc1	66.6	57.2	65.4	101.5	< 6.2	–	–	–	–	–	–
CNC(=O)c1ccccc1NC(=O)C1=Cc2c(Br)cccc2OC1	46.1	48.1	47.9	89.2	–	–	–	–	–	–	–
O=C(Nc1cccnc1)c1c[nH]c2ccccc2c1=O	38.5	42.5	39.3	80.9	–	–	–	–	–	–	–
COC(=O)c1ccc(NC(=O)c2c[nH]c3ccccc3c2=O)cc1	61.3	61.6	49.7	73.6	–	–	–	–	–	–	–
COc1cccc2c1OCC(C(=O)Nc1ccc(Br)cn1)=C2	58.2	65.3	43.7	75.3	–	–	–	–	–	–	–
CC(=O)Nc1ccc(NC(=O)C2=Cc3c(Br)cccc3OC2)cc1	46.9	46.7	41.7	92.9	–	–	–	–	–	–	–
N#Cc1ccc(NC(=O)c2c[nH]c3ccccc3c2=O)cc1	39.7	34.7	40.7	71.9	–	–	–	–	–	–	–
COc1cccc(OC)c1NC(=O)C1=Cc2c(Br)cccc2OC1	46.4	45.2	52.8	92.9	–	–	–	–	–	–	–
Cc1ccc(O)cc1NC(=O)c1c[nH]c2c(Cl)cccc2c1=O	44.7	53.6	41.6	92.7	140 (≈ 46 µg/mL)	–	–	–	–	–	–
O=C(NCc1cccc(Cl)c1)c1cc2c(Br)cccc2oc1=O	45.2	45.4	43.1	97	–	–	–	–	–	–	–
COc1cccc2c(=O)c(C(=O)Nc3cc(O)ccc3C)c[nH]c12	46.4	34.5	56.1	85.8	–	–	–	–	–	–	–
COC(=O)c1ccc(NC(=O)C2=Cc3ccccc3OC2)cc1	62.6	58.4	55.5	91.4	202 (≈ 62.5 µg/mL)	–	–	–	–	–	–
COc1ccccc1NC(=O)C1=Cc2c(OC)cccc2OC1	56.1	58.2	50.9	81.8	–	–	–	–	–	–	–
CCOc1ccc(NC(=O)c2cnc3ccccc3c2O)cc1	28.8	36.4	52.7	93.2	–	–	–	–	–	–	–
CCOc1cc(Cl)c(Cl)c(/C=N/NC(=O)c2ccccc2Br)c1O	53.1	44.3	8.6	40.2	–	31.33	Active	Active	149	152	–
COc1ccccc1NC(=O)c1c[nH]c2ccccc2c1=O	60.1	36.6	31.2	63	–	–	–	–	–	–	–
CC(C(O)c1ccc(O)cc1)N1CCC(Cc2ccccc2)CC1 (stereo not given) [IFENPRODIL]	46.4	41.4	40.3	82.3	–	–	–	–	–	–	–
COc1cccc(NC(=O)c2c[nH]c3ccccc3c2=O)c1	59.5	65.5	44.5	100.8	454 (≈ 133 µg/mL)	–	–	–	–	–	–
CNC(=O)c1ccccc1NC(=O)c1c[nH]c2ccccc2c1=O	55.9	56.4	53.7	90.6	62.3 (≈ 20 µg/mL)	–	–	–	–	–	–
COC(=O)c1ccc(NC(=O)C2=Cc3cccc(OC)c3OC2)cc1	57.5	58.7	41.2	73.3	–	–	–	–	–	–	–
